Experimental data published in patent US20100041089A1, “IMPROVED METHOD FOR DETECTING CHEMICAL […]” (priority 2006, published 2010).

System: yeast genes (expressed mRNA)
Assay: DNA chip measurement of expressed mRNA of yeast genes after culture with a toxic chemical substance
Type: cell-based, Saccharomyces cerevisiae S288C
Procedure, shortened: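 Fluorescence ratio, treated over untreated, read by chip scanner; ratio of two or more counted significant. Cells: S288C yeast, YPD, 25° C, chemical added at log phase for 2 h at growth-inhibiting, sublethal level. Cy3/Cy5-labeled cDNA from oligo-dT-purified mRNA.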

Compound: C=CC=O [(14), Acrolein]
- The level of expressed mRNA in the presence of chemical substance/The level of expressed mRNA in the absence of chemical substance (yeast gene YKL071W, cultured two hours with substance): 21.9
- The level of expressed mRNA in the presence of chemical substance/The level of expressed mRNA in the absence of chemical substance (yeast gene YKL086W, cultured two hours with substance): 2.9
- The level of expressed mRNA in the presence of chemical substance/The level of expressed mRNA in the absence of chemical substance (yeast gene YKL151C, cultured two hours with substance): 1.3
- The level of expressed mRNA in the presence of chemical substance/The level of expressed mRNA in the absence of chemical substance (yeast gene YKL153W, cultured two hours with substance): 1.1
- The level of expressed mRNA in the presence of chemical substance/The level of expressed mRNA in the absence of chemical substance (yeast gene YKL195W, cultured two hours with substance): 1.6
- The level of expressed mRNA in the presence of chemical substance/The level of expressed mRNA in the absence of chemical substance (yeast gene YKL198C): 6.6
- The level of expressed mRNA in the presence of chemical substance/The level of expressed mRNA in the absence of chemical substance (yeast gene YKR049C, cultured two hours with substance): 2.1
- The level of expressed mRNA in the presence of chemical substance/The level of expressed mRNA in the absence of chemical substance (yeast gene YKR076W): 14.7
- The level of expressed mRNA in the presence of chemical substance/The level of expressed mRNA in the absence of chemical substance (yeast gene YKR091W, cultured two hours with substance): 1.9
- The level of expressed mRNA in the presence of chemical substance/The level of expressed mRNA in the absence of chemical substance (yeast gene YKR097W, cultured for two hours with substance): 2.1
- The level of expressed mRNA in the presence of chemical substance/The level of expressed mRNA in the absence of chemical substance (yeast gene YLL056C, cultured two hours with substance): 11.0
- The level of expressed mRNA in the presence of chemical substance/The level of expressed mRNA in the absence of chemical substance (yeast gene YLL060C (detoxification protein gene)): 10.6
- The level of expressed mRNA in the presence of chemical substance/The level of expressed mRNA in the absence of chemical substance (yeast gene YLL060C (stress protein genes)): 10.6
- The level of expressed mRNA in the presence of chemical substance/The level of expressed mRNA in the absence of chemical substance (yeast gene YLR031W, cultured two hours with substance): 1.5
- The level of expressed mRNA in the presence of chemical substance/The level of expressed mRNA in the absence of chemical substance (yeast gene YLR054C, cultured two hours with substance): 1.1
- The level of expressed mRNA in the presence of chemical substance/The level of expressed mRNA in the absence of chemical substance (yeast gene YLR149C, cultured two hours with substance): 1.2
- The level of expressed mRNA in the presence of chemical substance/The level of expressed mRNA in the absence of chemical substance (yeast gene YLR152C, cultured two hours with substance): 1.2
- The level of expressed mRNA in the presence of chemical substance/The level of expressed mRNA in the absence of chemical substance (yeast gene YLR194C, cultured two hours with substance): 1.2
- The level of expressed mRNA in the presence of chemical substance/The level of expressed mRNA in the absence of chemical substance (yeast gene YLR205C, cultured two hours with substance): 2.4
- The level of expressed mRNA in the presence of chemical substance/The level of expressed mRNA in the absence of chemical substance (yeast gene YLR280C, cultured two hours with substance): 0.5
- The level of expressed mRNA in the presence of chemical substance/The level of expressed mRNA in the absence of chemical substance (yeast gene YLR324W, cultured two hours with substance): 1.4
- The level of expressed mRNA in the presence of chemical substance/The level of expressed mRNA in the absence of chemical substance (yeast gene YLR350W, cultured two hours with substance): 2.8
- The level of expressed mRNA in the presence of chemical substance/The level of expressed mRNA in the absence of chemical substance (yeast gene YLR387C, cultured two hours with substance): 1.7
- The level of expressed mRNA in the presence of chemical substance/The level of expressed mRNA in the absence of chemical substance (yeast gene YLR408C, cultured two hours with the substance): 2.1
- The level of expressed mRNA in the presence of chemical substance/The level of expressed mRNA in the absence of chemical substance (yeast gene YLR460C, cultured two hours with substance): 3.5
- The level of expressed mRNA in the presence of chemical substance/The level of expressed mRNA in the absence of chemical substance (yeast gene YML054C, cultured for two hours with substance): 2.1
- The level of expressed mRNA in the presence of chemical substance/The level of expressed mRNA in the absence of chemical substance (yeast gene YML087C, cultured for two hours with substance): 2.1
- The level of expressed mRNA in the presence of chemical substance/The level of expressed mRNA in the absence of chemical substance (yeast gene YML117W, cultured two hours with substance): 0.8
- The level of expressed mRNA in the presence of chemical substance/The level of expressed mRNA in the absence of chemical substance (yeast gene YMR009W, cultured two hours with substance): 1.9
- The level of expressed mRNA in the presence of chemical substance/The level of expressed mRNA in the absence of chemical substance (yeast gene YMR067C, cultured two hours with substance): 1.5
- The level of expressed mRNA in the presence of chemical substance/The level of expressed mRNA in the absence of chemical substance (yeast gene YMR090W, cultured two hours with substance): 6.5
- The level of expressed mRNA in the presence of chemical substance/The level of expressed mRNA in the absence of chemical substance (yeast gene YMR095C, cultured two hours with substance): 2.2
- The level of expressed mRNA in the presence of chemical substance/The level of expressed mRNA in the absence of chemical substance (yeast gene YMR096W, DNA repair protein genes, cultured two hours with substance): 4.7
- The level of expressed mRNA in the presence of chemical substance/The level of expressed mRNA in the absence of chemical substance (yeast gene YMR097C, cultured two hours with substance): 2.1
- The level of expressed mRNA in the presence of chemical substance/The level of expressed mRNA in the absence of chemical substance (yeast gene YMR102C, cultured two hours with substance): 0.7
- The level of expressed mRNA in the presence of chemical substance/The level of expressed mRNA in the absence of chemical substance (yeast gene YMR107W, cultured two hours with substance): 8.1
- The level of expressed mRNA in the presence of chemical substance/The level of expressed mRNA in the absence of chemical substance (yeast gene YMR140W, cultured two hours with substance): 1.2
- The level of expressed mRNA in the presence of chemical substance/The level of expressed mRNA in the absence of chemical substance (yeast gene YMR180C, cultured two hours with substance): 1.7
- The level of expressed mRNA in the presence of chemical substance/The level of expressed mRNA in the absence of chemical substance (yeast gene YMR184W, cultured two hours with substance): 1.5
- The level of expressed mRNA in the presence of chemical substance/The level of expressed mRNA in the absence of chemical substance (yeast gene YMR191W, cultured two hours with substance): 1.5
- The level of expressed mRNA in the presence of chemical substance/The level of expressed mRNA in the absence of chemical substance (yeast gene YMR195W, cultured two hours with substance): 1.3
- The level of expressed mRNA in the presence of chemical substance/The level of expressed mRNA in the absence of chemical substance (yeast gene YMR295C, cultured two hours with substance): 1.3
